Reference: PubChem BioAssay (NCI)
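Growth conditions: 96-well plates. Treatment: test compound, 48 hours, 5 concentrations. Analysis: linear interpolation between bracketing concentrations; unreached endpoints set to highest concentration. TGI marks complete inhibition of growth.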 Where a SMILES comes first, the peptide text is derived from it. The star is where a group is joined. Cbz = O=C(OCc1ccccc1)*; NHNH2 = NN*

Columns and labels:
Assay in all cases: NCI anticancer screen, dose series, 48 h
M14 melanoma = tested on: M14 melanoma
HCT-116 colon = tested on: HCT-116 colon
SK-MEL-2 melanoma = tested on: SK-MEL-2 melanoma
MDA-MB-435 = tested on: MDA-MB-435
SNB-75 CNS = tested on: SNB-75 CNS
SF-268 CNS = tested on: SF-268 CNS
OVCAR-8 ovarian = tested on: OVCAR-8 ovarian
PC-3 prostate = tested on: PC-3 prostate

Row | Compound | TGI (M14 melanoma) [µM] | TGI (HCT-116 colon) [µM] | TGI (SK-MEL-2 melanoma) [µM] | TGI (MDA-MB-435) [µM] | TGI (SNB-75 CNS) [µM] | TGI (SF-268 CNS) [µM] | TGI (OVCAR-8 ovarian) [µM] | TGI (PC-3 prostate) [µM]
1 | O=c1c(-c2ccc(Cl)cc2)nnc2n(Cc3ccccc3)c3ccccc3n12 | > 100 | > 100 | > 100 | > 100 | 44.9 | > 100 | > 100 | > 100
2 | O=C(N/N=C/c1ccco1)c1cc(I)cc(I)c1O | > 50 | > 50 | 19.7 | > 50 | > 50 | > 50 | > 50 | > 50
3 | Cc1c2ncccc2cc2oc3ccccc3c(=O)c12 |  | > 100 | > 100 | > 100 | > 100 | > 100 | > 100 | > 100
4 | CCOc1cc(-c2nc3ccccn3c2/N=C/c2cc(Br)ccc2O)ccc1O | > 100 | > 100 | > 100 | > 100 | 31.3 | > 100 | 59.3 | 73.3
5 | CC1(C)CNC(=O)C2(C=NC(C)(C)CNC(=O)C3(C=N1)CCCO3)CCCO2 (stereo not drawn) | > 10 | > 10 |  | > 10 | > 10 | > 10 | > 10 | > 10
6 | COC(=O)C1=Nc2c(C)nn(-c3ccccc3)c2N=C(c2ccc([N+](=O)[O-])cc2)C1 | > 10 | > 10 |  | > 10 | > 10 | > 10 | > 10 | > 10
7 | Cc1nc(C)c(Cc2ccccc2)o1 | > 100 | > 100 |  | > 100 | > 100 | > 100 | > 100 | > 100
8 | CC1(C)OCC2OC3([C@H]4OC(C)(C)O[C@@H]4CO)OC(C)(C)OC3C2O1 (stereo partly drawn) | > 100 | > 100 | > 100 | > 100 | > 100 |  | > 100 | > 100
9 | Nc1ccc2[nH]c(-c3cccc(Cl)c3)cc(=O)c2c1 | > 100 |  |  | 2.39 | > 100 |  | > 100 | > 100
10 | Nc1c(C(=O)c2ccc(Cl)cc2)[nH]c(NCc2ccccc2)c1C(=S)Nc1ccccc1 | 3.54 | 3.31 | 3.58 | 3.14 | 3.33 | 8.44 | 3.37 | 18.4
11 | O=C(Cc1ccccc1)NN1C(=O)/C(=C\c2ccc([N+](=O)[O-])cc2)SC1=Nc1ccccc1 | > 100 | > 100 | > 100 | > 100 | > 100 | > 100 | > 100 | 
12 | Cc1nn(-c2cc(Cl)ccc2[N+](=O)[O-])c(C)c1Cl | > 100 | > 100 | > 100 | > 100 | > 100 | > 100 | > 100 | > 100
13 | O=c1c2ccccc2nc(Nc2cccc(Cl)c2)n1/N=C/C=C/c1ccccc1 | > 100 | > 100 | > 100 | > 100 | > 100 | > 100 | > 100 | 97.4
14 | COC(=O)CC(NC(=O)OCc1ccccc1)C(=O)NC(CC(=O)OC)C(=O)NC(CC(=O)OC)C(=O)NC(CC(=O)OC)C(=O)NC(CC(=O)OC)C(=O)NC(CC(=O)OC)C(=O)NN (stereo not drawn) (Cbz-D(OMe)D(OMe)D(OMe)D(OMe)D(OMe)D(OMe)-NHNH2; configuration not given here) | > 100 | > 100 | > 100 | > 100 | > 100 | > 100 | > 100 | > 100
15 | COc1cc(/C=C\C(=O)O)ccc1OCc1ccccc1 | > 100 | > 100 | > 100 | > 100 |  | > 100 | > 100 | > 100
16 | N#Cc1cc2c(cc1Cl)Sc1nccn1S2(=O)=O | 4.02 | 4.03 | 12.8 | 17.5 | 20.4 | 13 | 8.9 | 8.93
17 | CCOC(=O)C(CC#Cc1ccc(C#CCC(NC(C)=O)C(=O)OCC)cc1)NC(C)=O (stereo not drawn) | > 100 | > 100 | > 100 | > 100 | > 100 | > 100 | > 100 | > 100
18 | CN(C)CCn1c(=O)c2ccc(NCCCN(C)CCCNc3ccc4c(=O)n(CCN(C)C)c(=O)n5c6ccc([N+](=O)[O-])cc6c(=O)c3c45)c3c(=O)c4cc([N+](=O)[O-])ccc4n(c1=O)c23 | 0.753 | 0.118 |  | 0.097 | 0.195 | 0.733 | 0.431 | 0.293
19 | COC(=O)c1ccc(C=Nc2ccc(S(N)(=O)=O)cc2)cc1 | > 100 | > 100 | > 100 | > 100 | > 100 | > 100 | > 100 | > 100
20 | CCOn1c(C2(CC3CCN(C(=O)c4ccccc4)CC3)OCCO2)cc2ccccc21 | 33.6 | 29.2 | 32.2 | 27.4 | 34.6 | 35 | 29.2 | 26
21 | CCOC(=O)C(NC(=O)CC(C)C)(N1CCN(c2cc3c(cc2F)c(=O)c(C(=O)O)cn3C2CC2)CC1)C(F)(F)F (stereo not drawn) | 47.5 | 56.2 | 53.3 | 56.5 | 64.5 | 40.8 | > 100 | 63.7
22 | C=c1c(OC)c(OC)c(O)c2c1=c1cc([N+](=O)[O-])cc(OC)c1=N2 | > 100 | > 100 | > 100 | > 100 | > 100 | > 100 | > 100 | > 100
23 | Cn1c2ccccc2n2c(=O)c3cc([N+](=O)[O-])ccc3c(C#N)c12 | > 100 | > 100 | > 100 | > 100 | > 100 | > 100 | > 100 | > 100
24 | CC1CC(=O)Nc2nc3ccccc3n21 (stereo not drawn) | > 100 | > 100 | > 100 | > 100 |  | > 100 | > 100 | > 100
25 | CNC(=O)N(CCC#N)[C@H]1CCCC[C@@H]1N(C(=O)NC)c1ccccc1 | > 100 | > 100 | > 100 | > 100 | > 100 |  | > 100 | > 100

Row | Compound | TGI (M14 melanoma) [µM] | TGI (HCT-116 colon) [µM] | TGI (SK-MEL-2 melanoma) [µM] | TGI (MDA-MB-435) [µM] | TGI (SNB-75 CNS) [µM] | TGI (SF-268 CNS) [µM] | TGI (OVCAR-8 ovarian) [µM] | TGI (PC-3 prostate) [µM]
26 | NC(=O)C(=CNC(=S)c1ccncc1)C(N)=O | > 100 | > 100 | > 100 | > 100 |  | > 100 | > 100 | > 100
27 | CC1(CNCc2ccccc2)CC(CCc2ccccc2)N(C(=O)c2ccc([N+](=O)[O-])cc2)C1Cc1ccc(O)cc1 (stereo not drawn) | 28 | 23.1 | 32.7 | 28.2 |  | 27.6 | 32 | 26.3
28 | CCNC(=O)C1CCCN1C(=O)C(CCCN=C(N)N)NC(=O)C(CC(C)C)NC(=O)C(Cc1c[nH]c2ccccc12)NC(=O)C(Cc1ccc(O)cc1)NC(=O)C(CO)NC(=O)C(Cc1c[nH]c2ccccc12)NC(=O)C(Cc1cnc[nH]1)NC(=O)C1CCC(=O)N1 (stereo not drawn) | > 100 |  | > 100 | > 100 | > 100 | > 100 | > 100 | > 100
29 | COc1cc(I)c2c3c1OC1C34CCN(C)C(C2)C4=CC(I)C1(OC)OC (stereo not drawn) | > 100 | 60.6 | 32.9 | 33.8 | 31.2 | 61.5 | 53 | 82.1
30 | COc1ccc2c(c1)CC1=C(O2)c2ccc(OC)cc2OC1 | 37.3 | 41.8 | 81.6 | 47.5 | 66.3 | 68.5 | 78.2 | 57
31 | O=C(Cc1ccc([N+](=O)[O-])cc1)OCC#CCOC(=O)Cc1ccc([N+](=O)[O-])cc1 | > 10 |  | > 10 | > 10 | > 10 | > 10 | > 10 | > 10
32 | COCc1nc2c(OC)cc(-c3nc4ccc(N5CCN(C)CC5)cc4[nH]3)c(OC)c2[nH]1 | 31.9 | > 100 | 76.3 | > 100 | > 100 | > 100 | > 100 | > 100
33 | CC(=O)OCC(OC(C)=O)C1C[C@H]2O[C@@H]3[C@H](C[C@H]2O1)O[C@@]1(C[C@@H]3C)C[C@H](C)[C@@H]2O[C@]3(C[C@@H]2O1)C[C@H]1O[C@H]2[C@H](C)[C@H]4OC(=O)CC5CC[C@H]6OC7[C@H]8O[C@]9(CC[C@H]%10CC(O)(CO)[C@H](CC[C@H]%11C[C@@H](C)C(O)(CO)C(C[C@@H]4O[C@H]2C[C@H]1O3)O%11)O%10)CC8O[C@@H]7[C@@H](O9)[C@H]6O5 (stereo partly drawn) | > 1 | > 0.452 | > 1 | 0.0139 | > 1 | > 1 | > 0.271 | > 1
34 | Brc1ccc2c(-c3csc(-c4c[nH]c5cc(Br)ccc45)n3)c[nH]c2c1 | > 56.5 | 32.3 | > 100 | 17.5 | 66.1 | > 100 | > 57.1 | > 79.5
35 | CC(=O)OC/C=C(/C=C/CNC1CCCCC1)OC(C)=O | 21.2 | 30.5 | 43.8 | 30.4 | 93.6 | 35.5 |  | 31.1
36 | CCCCc1ccc(Nc2nc3c(ncn3COCCO)c(=O)[nH]2)cc1 | > 100 | > 100 | > 100 | > 100 | > 100 | > 100 | > 100 | 
37 | O=C(Nc1ccccc1C(=O)NCCCO)/C(=C/c1ccccc1O)NC(=O)c1ccccc1 | > 100 | > 75.8 | > 100 | > 100 | > 83.9 | > 100 | > 64.6 | > 100
38 | Brc1cc2nn(-c3ccccc3)nc2c2nonc12 | > 100 | > 100 | > 100 | > 100 | > 100 | > 100 | > 100 | > 100
39 | Cn1c([O-])nc(-n2cc[n+](C)c2)cc1=O | > 100 | > 100 | > 100 | > 100 |  | > 100 |  | > 100
40 | CCC(=O)Oc1c2ccsc2c(OC(=O)CC)c2ccsc12 | 0.305 | 1.79 | 1.39 | 0.159 | 0.341 | 2.29 | 1.4 | 
41 | CC1(C(=O)O)CCCC1C(=O)O (stereo not drawn) | > 100 | > 100 | > 100 |  |  | > 100 | > 100 | > 100
42 | C=C1CC(C)(c2ccc(Nc3nc4ccccc4c4occc34)cc2)OC1=O (stereo not drawn) | 4.73 |  |  | 6.09 | 6.56 | 15.2 | 11.4 | 20
43 | CC1S/C(=N/c2nnc(-c3ccccc3)o2)NC1=O (stereo not drawn) | 56.5 | 37.4 | > 100 | > 100 |  | > 100 | > 100 | > 100
44 | Cc1cn(C(C)OCCN2C(=O)c3ccccc3C2=O)c(=O)[nH]c1=O (stereo not drawn) | > 100 | > 100 | > 100 | > 100 | > 100 |  | > 100 | > 100
45 | O=c1[nH]nc(-c2ccccc2)c2[nH]c(-c3ccccc3)cc12 | > 100 | > 100 |  | > 100 | > 100 | > 100 | > 100 | 
46 | Cc1cc2[nH]c3c(C#N)c4c(c(=O)n3c2cc1C)CCCC4 | 27.6 | > 100 | > 100 | > 100 |  | > 100 | > 100 | > 100
47 | CN(C)S(=O)(=O)Nc1nnc(S(N)(=O)=O)s1 | > 100 | > 100 | > 100 | > 100 | > 100 | > 100 |  | > 100
48 | O=C1C=C(c2ccccc2)O/C1=C/C(=O)c1ccc(Cl)cc1 | 40.3 | 30.6 |  | 28.5 | 23.6 | 54.6 | 74.8 | 27.3
49 | CSc1nc2c(c(=O)n1C)N=C(c1ccccc1)[C@H](C(CC(=O)c1ccccc1)c1ccccc1)C(c1ccccc1)N2 (stereo partly drawn) | > 100 | > 100 | > 100 | > 100 | > 100 |  | > 100 | > 100
